Assay results from patent publication US20220241228A1, “Treatment of cholangiopathies” (CymaBay Therapeutics, Inc., priority 2021, published 2022).
Read-outs that look alike come from different tables or passages of the source.

Assays:
[1] = test system: subjects with PSC; test: Randomized placebo-controlled 24-week trial in primary sclerosing cholangitis (Example 2); format: in vivo, human; settings: 5, 10, or 20 mg/day orally once/day for 24 weeks
Experimental: Trial subjects are adult, male or female, with a diagnosis of PSC by at least two of the following three criteria: (a) historical evidence of an elevated AP >ULN from any prior laboratory result, (b) liver biopsy consistent with PSC, and (c) abnormal cholangiography consistent with PSC as measured by MRCP, ERCP, or percutaneous transhepatic cholangiography; on a stable and recommended dose of UDCA ≤20 mg/Kg/day for the past six months or at least twelve weeks off UDCA treatment; and intolerant of, or having an inadequate response to, obeticholic acid and/or a fibrate. Other criteria include ALP ≥1.5×ULN, TBIL ≤2×ULN, ALT and AST both ≤5×ULN, eGFR >60 mL/min/1.73 m^2, platelets ≥140×10^3/μL, INR ≤1.3 (in the absence of warfarin or other anticoagulant therapy), and albumin ≥3.5 g/dL. Exclusion criteria include clinically significant acute or chronic liver disease of an etiology other than PSC, a diagnosis of overlapping autoimmune hepatitis (AIH) and PSC, secondary or IgG4 related sclerosing cholangitis, small duct PSC, presence of a cholangiocarcinoma on cholangiography or MRI, bile duct stenting, history, evidence, or high suspicion of cholangiocarcinoma or other hepatobiliary malignancy, presumptive or diagnosed acute cholangitis within twelve weeks, and evidence of compensated or decompensated cirrhosis. […]

[2] = test system: Subjects with primary biliary cholangitis; test: Pooled open-label Phase 2 and placebo-controlled Phase 3 studies of seladelpar in PBC subjects intolerant of, or with inadequate response to, obeticholic acid and/or a fibrate; format: in vivo, human; settings: for Composite endpoint met / ALP ≤ ULN / Mean change in ALT / Mean change in TBIL / Mean change in ALP: three months; for Composite endpoint met: ALP <1.67×ULN, >15% decrease in ALP, and TBIL ULN; for Mean change in ALP: from baseline
Text: The trial subjects were adult, male or female, with a diagnosis of PBC by at least two of the following three criteria: (a) a history of ALP above the upper limit of normal (ULN) for at least six months, (b) positive anti-mitochondrial antibody titers > 1/40 on immunofluorescence or M2 positive by enzyme linked immunosorbent assay or positive PBC-specific antinuclear antibodies, and (c) documented liver biopsy result consistent with PBC, on a stable and recommended dose of UDCA for the past twelve months or UDCA intolerant, and ALP ≥1.67×ULN. Exclusion criteria included AST or ALT ≥3×ULN, TBIL ≥2×ULN, autoimmune hepatitis or a history of chronic viral hepatitis, PSC, the current use of fibrates or simvastatin, the use of colchicine, methotrexate, azathioprine, or systemic steroids in the previous two months, the use of an experimental treatment for PBC, and the use of an experimental or unapproved immunosuppressant. […] Efficacy was assessed on subjects treated for three months. The composite endpoint was the responder rate for subjects achieving ALP <1.67×ULN, >15% decrease in ALP, and TBIL ULN. Additional endpoints were ALP ULN, ALP change from baseline, and other markers of liver function. Safety was assessed over one year. […] Fifty-one subjects were treated for 3 months; and 37 were assessed; with results in the table below: A safety analysis was performed on all 71 subjects.

[3] = test system: patients with primary biliary cholangitis; settings: over a 52-week period; cited from earlier work
[4] = target: T1, PPARα (Homo sapiens, UniProt Q07869); test: Specificity of seladelpar compared with PPARα; format: biochemical; settings: PPARδ versus PPARα
T1 sequence (Q07869 1-468): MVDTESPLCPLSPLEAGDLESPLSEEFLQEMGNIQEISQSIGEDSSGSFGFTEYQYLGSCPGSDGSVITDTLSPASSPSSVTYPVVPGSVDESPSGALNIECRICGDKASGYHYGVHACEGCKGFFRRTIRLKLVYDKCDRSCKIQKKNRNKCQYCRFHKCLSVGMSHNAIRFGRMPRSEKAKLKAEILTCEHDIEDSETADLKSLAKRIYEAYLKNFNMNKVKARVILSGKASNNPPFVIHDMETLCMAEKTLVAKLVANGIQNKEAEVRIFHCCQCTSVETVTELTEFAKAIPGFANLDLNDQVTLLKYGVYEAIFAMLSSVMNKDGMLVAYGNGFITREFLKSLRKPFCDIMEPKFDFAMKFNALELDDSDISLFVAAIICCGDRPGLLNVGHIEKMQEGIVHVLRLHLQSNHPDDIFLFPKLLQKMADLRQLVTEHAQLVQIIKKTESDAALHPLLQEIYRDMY
Text: It is specific (>600-fold and >2500-fold compared with PPARα and PPARγ receptors). PPARδ activation stimulates fatty acid oxidation and utilization, improves plasma lipid and lipoprotein metabolism, glucose utilization, and mitochondrial respiration, and preserves stem cell homeostasis.

[5] = test system: PBC patients; settings: 12-month trial, cited from earlier work
[6] = test system: PBC patients; settings: cited from earlier work
[7] = PBC subjects intolerant of, or inadequate response to, obeticholic acid and/or a fibrate

CCO[C@H](COc1ccc(C(F)(F)F)cc1)CSc1ccc(OCC(=O)O)c(C)c1 [Seladelpar, [4-({(2R)-2-ethoxy-3-[4-(trifluoromethyl)phenoxy]propyl}sulfanyl)-2-methylphenoxy]acetic acid]
ALP [1]: dose-related reductions | PSC-related symptoms [1]: improvements | Pruritus adverse events experienced ([2]; 5 mg/day orally once/day): 15% | Composite endpoint met ([2]; 5 mg/day orally once/day as L-lysine dihydrate salt): 40% | ALP ≤ ULN ([2]; 5 mg/day orally once/day): 0 | Mean change in ALT ([2]; 5 mg/day orally once/day): −13% | Mean change in TBIL ([2]; 5 mg/day orally once/day): −3% | Mean change in ALP ([2]; 5 mg/day orally once/day): −31% | subjects who experienced a serious adverse event ([2]; 5 mg/day, safety analysis on all 71 subjects, all unrelated to seladelpar): three | subjects who discontinued treatment due to adverse events ([2]; 5 mg/day, safety analysis on all 71 subjects, one ALT/AST elevation, one gastroesophageal reflux disease): two | Pruritus adverse events experienced ([2]; 10 mg/day orally once/day): 7% | Composite endpoint met ([2]; 10 mg/day orally once/day as L-lysine dihydrate salt): 79% | ALP ≤ ULN ([2]; 10 mg/day orally once/day): 21% | Mean change in ALT ([2]; 10 mg/day orally once/day): −21% | Mean change in TBIL ([2]; 10 mg/day orally once/day): −9% | Mean change in ALP ([2]; 10 mg/day orally once/day): −45% | biochemical markers of cholestasis [2, 7]: meaningful improvement | safety and tolerability [2, 7]: safe, well tolerated | ALP and GGT [3]: statistically significant decreases | ALT [3]: statistically significant decrease | total bilirubin levels [3]: stable | specificity compared with PPARα [4]: > 600 fold

CC[C@H]1[C@@H](O)[C@@H]2[C@H](CC[C@]3(C)[C@@H]([C@H](C)CCC(=O)O)CC[C@@H]23)[C@@]2(C)CC[C@@H](O)C[C@@H]12 [OCA, 6α-ethylchenodeoxycholic acid]
patients with severe pruritus ([5]; OCALIVA 10 mg arm): 23% | patients with severe pruritus ([5]; OCALIVA titration arm): 19%

C[C@H](CCC(=O)O)[C@H]1CC[C@H]2[C@@H]3[C@@H](O)C[C@@H]4C[C@H](O)CC[C@]4(C)[C@H]3CC[C@]12C [UDCA, ursodeoxycholic acid]
patients reported to be intolerant to treatment [6]: about 5%
